Experimental findings from patent US20230190883A1, “STABLE PEPTIDES HAVING RENALASE AGONIST ACTIVITY” (Bessor Pharma, LLC, priority 2020, published 2023) are described below.

Assay [1] concerns carrageenan-induced Paw edema. Put plainly: carrageenan-induced paw edema (CPE) model in mice. In kind it is in vivo, CD-1 mice. The note with it: for activity at 2 hours: 2 hours after carrageenan. An excerpt:
This test is a rapid in vivo model for evaluation of anti-inflammatory efficacy of test articles. The CPE model in mice quantitativdy assesses inhibition of edema enduced by subplantarinjection of carrageenan. […] Carrageenan-induced inflammation invoves extravasation of polymorphonuclear leukocytes from circulation to the site of inflammation. The subsequent release of myeloperoxidase and other cytokines within the interstitial tissues results in plasma exudation into the site of inflammation. The increased paw volume is measured by water displacement. Anti-inflammatory drugs reduce the paw edema.
• 1. Receive (SOP 1910, SOP 1920) and quarantine (SOP 560) 125 CD-1 mice (Charles River Laboratories, male, 5-6 weeks old). • 2. Animals are ear tagged (SOP 810), weighed, and sorted into 9 groups with 10 animals/group and 5 groups of 7 animals/group based upon average body weight. • 3. Prepare 3% carrageenan solution: • 1) Preparation at least 2 weeks in advance of use. • 2) Weigh out 600 mg A-carrageenan into a glass beaker. • 3) Add 20 ml deionized water. • 4) Stir on mild heat until carrageenan fully dissolved. • 5) Cool solution to ambient temperature. • 6) Store at 4-8° C. • 4. Until the day of use the renalase peptides are stored at -20° C. as dry powder. • 5. DAY 0 • a. Prepare test material in sterile saline (vehicle). • b. On the day of dosing, renalase peptides are dissolved. • c. On day prior to administration check carrageenan solution for clarity (no visible evidence of contamination). • 1) Equilibrate carrageenan to ambient temperature. • d. Record mouse weights in laboratory notebook. • e. Measure and record paw initial paw volumes: • 1) Place beaker of water on balance and tare to zero. • 2) Place right hind limb in the beaker of water on the scale with the top of the hock centered in the meniscus of the water. Record read-out on the scale. • 3) The foot must be dried after each measurement as wet feet will change the readout. • 4) Re-tare the scale between measurements to account for decrease in water volume. • f. […]
The test was also conducted to compare the inhibition of inflammation by peptide 10 as compared to the corresponding peptide fragment without the alanine substitution at position 220 (peptide 81).
In general terms: Carrageenan injected into the paw causes an acute inflammation.

Assay [2] deals with cisplatin induced kidney injury. Put plainly: cisplatin-induced kidney injury in vivo. The text has this:
A key measure of this toxicity is a decrease in kidney mass; this is limited when Renalase A (205-240)-OH is given. More dramatic is the effect of peptide on the reduced renal function seen with cisplatin induced renal injury.

Assay [3] deals with COVID-19 mouse model. Kind of assay: COVID-19 mouse model, survival. Conditions: FIG. 11.
Assay [4] has as its system renal ischemia reperfusion injury. Kind of assay: renal ischemia reperfusion injury, preclinical murine model. The assay is classed as in vivo.
Assay [5] has as its system blood from healthy donors. In kind it is cell-based.
For assay [6], the system named is acute pancreatitis. Put plainly: experimental acute pancreatitis (AP), mouse model. The assay is classed as in vivo. An excerpt:
This likely represents inhibition of inflammatory pathways central to AP pathogenesis; a probable target is inflammatory activation (FIG. 5). Since most patients with AP present long after disease onset and later onset responses are most important in determining AP severity, the beneficial effects of peptide 10 should be therapeutically valuable even late in the course of disease. In this context we have shown that RNLS agonists reduce injury when given 2 hrs after the onset of cerulein AP and 12hrs after the induction of arginine AP.

Assay [7] has as its system severe viral infection. Put plainly: model of severe viral infection in renalase-deficient mice. The note with it: FIG. 12.
Assay [8] deals with cerulin-induced severe pancreatitis. Kind of assay: cerulin-induced severe pancreatitis model. In kind it is in vivo. Conditions: FIG. 13.
Assay [9] concerns cronin 1. Put plainly: levels of cronin 1, marker for inflammatory cells. Conditions: FIG. 14.
Assay [10] relates to cultured proximal renal tubule cell line. Put plainly: cisplatin-induced injury of cultured kidney cells. The assay is classed as cell-based. The text has this:
We have shown that a peptide of the invention [Ala^220]-Ac-Renalase A (205-240)-NH2 eliminated cisplatin-induced injury of cultured kidney cells. […] Data are shown below for such RNLS agonists

Where [11] appears, read: 10 mpk, * = statistical significance.
[12] abbreviates: peptide at 50 ug/ml, 3 hrs incubation, ELISA, p<0.01.

Marks after values point to notes of the source that are not given here.

As for `C[C@@H]1C[C@H]2[C@@H]3CCC4=CC(=O)C=C[C@]4(C)[C@@]3(F)[C@@H](O)C[C@]2(C)[C@@]1(O)C(=O)CO` [Dexamethasone, reference compound], the “percent change from control, paw edema, 2 hr after carrageenan” value (shortened to “percent change … 2 hr after carrageenan”) in assay [1] (setting [11]) was 51.2* percent. For the same compound, in [1] (10 mpk), the “percent change from control, paw edema, 4 hr after carrageenan” value (shortened to “percent change … 4 hr after carrageenan”) is on record as 49.7* percent and the “percent change from control, paw edema, 10 hr after carrageenan” value (shortened to “percent change … 10 hr after carrageenan”) is 55.6* percent.

For the compound `COc1ccc2c(c1)c(CC(=O)O)c(C)n2C(=O)c1ccc(Cl)cc1` [Indomethacin, reference compound], in assay [1] (5 mpk), the “percent change … 2 hr after carrageenan” value is reported as 79.4* percent; the “percent change … 4 hr after carrageenan” value is given as 60.3* percent; the “percent change from control, paw edema, 6 hr after carrageenan” value (“percent change … 6 hr after carrageenan” below) is given as 42.4* percent; the “percent change … 10 hr after carrageenan” value is reported as 21.3%.

With Renalase A (205-240)-OH [Peptide 81], in assay [1] (3 mpk), the “percent change … 2 hr after carrageenan” value worked out at 14.2%; the “percent change … 4 hr after carrageenan” value stood at 1.6%; the “percent change … 6 hr after carrageenan” value is given as −13.1%; the “percent change … 10 hr after carrageenan” value was 2.4%. Besides, in assay [1] (setting [11]), the “percent change … 2 hr after carrageenan” value is 62.6* percent. Further, in [1] (10 mpk), the “percent change … 4 hr after carrageenan” value is 0.5%; the “percent change … 6 hr after carrageenan” value is on record as 2.9%; the “percent change … 10 hr after carrageenan” value turned out to be 13.3%. For the same compound, the “activity at 2 hours” value in assay [1] is on record as “active”. Further, in assay [2] (17 days of cisplatin treatment (4-fold increase without agonist), FIG. 4 right panel), the plasma creatinine levels result is listed as “reduced this toward the normal range”. Besides, the “kidney injury after cisplatin-induced treatment” value in assay [2] (FIG. 4) was “reduces kidney injury”. In addition, the “decrease in kidney mass” value in assay [2] (cisplatin toxicity, FIG. 4) is listed as “limited”.

“[Ala^220]-Ac-Renalase A (205-240)-NH2 (KIDVPWAGQYITSNPAIRFVSIDNKKRNIESSEIGP; N-acetyl, C-terminal amide; Based on homo sapiens sequence) [peptide 10]”: the survival result in assay [3] is given as “improves survival”. Besides, the “renal ischemia reperfusion injury” value in assay [4] is listed as “reduced”. Also, in assay [1] (0.3-30 mg/kg SC 30 min prior to carrageenan, test period of 10 hours, FIGS. 6 and 7), the “anti-inflammatory effect on paw edema” value is “has an anti-inflammatory effect”. Further, in assay [1], the “activity at 2 hours” value is “active”. Besides, in assay [1] (comparable but different experiments, same protocols), the “activity and duration of activity compared with peptide 81” value was “more active and longer active than peptide 81”. Further, in assay [1] (later than 2 hours), the “activity for longer periods of time” value was “only peptide 10 was active”. Also, the “activity compared with standards” value in assay [1] (versus dexamethasone and indomethacin) was “activity more in line with standards dexamethasone and indomethacin”. In addition, the “inflammatory response to SARS-CoV-2 peptides” value in assay [5] (FIG. 5) was “decreases”. Also, in assay [5] (setting [12]), the “SARS-CoV-2-peptide induced increase of IL1-beta” value is given as “inhibited”, the “SARS-CoV-2-peptide induced increase of IL6” value is reported as “inhibited” and the “SARS-CoV-2-peptide induced increase of TNF-alpha” value is given as “inhibited”. Also, in [5] (peptide at 50 ug/ml, SARS-CoV-2 peptides 0.19 nM, 3 hrs incubation, ELISA), the “SARS-CoV-2 peptide S and M induced levels of interferon-gamma” value is on record as “dramatically decreased”. In addition, the “injury in acute pancreatitis” value in assay [6] (FIG. 2) is on record as “reduces injury”. The “earliest AP responses (acinar cell related)” value in assay [6] (earliest responses, not shown) is “no effects”. Further, in assay [6] (later responses (6 hrs), FIG. 2A), the “levels of active trypsin” value is reported as “tended to reduce”. The tissue neutrophils result in [6] (later responses (6 hrs), FIG. 2B) is recorded as “dramatically decrease”. Moreover, the “mitochondrial injury as determined by OPA-1 and Parkin levels” value in [6] (later responses (6 hrs), FIG. 2C, D) is recorded as “reduced”. The “protection in severe viral infection” value in assay [7] is “protects”. Moreover, the necrosis entry in [8] is “effective in reducing necrosis”. For the same compound, the “levels of cronin 1” value in assay [9] is recorded as “decreases”. For the same compound, the “cisplatin-induced injury of cultured kidney cells” value in assay [10] is “eliminated”. Moreover, in assay [10] (FIG. 3), the “injury in a cultured proximal renal tubule cell line” value was “reduces injury”.
